Laboratory results as given in patent US20250230193A1, “CYCLIC COMPOUND HAVING SELECTIVE KRAS INHIBITORY EFFECT ON HRAS AND NRAS” (CHUGAI SEIYAKU KABUSHIKI KAISHA, priority 2022, published 2025).
pIC50, pKd: −log10 of the molar value. Like-named read-outs stand apart in the source and are kept apart here. *1 amine or outer side, *2 acyl side, *3 side chain or, on linkers, in order; H or OH if unused. Where a SMILES comes first, the peptide text is derived from it. Bridges are numbered along the chain shown (N, C = ends). [ ]: non-standard residue; d: D form. The star is where a group is joined. hPhe(3,5-F2-4-CF3) = N[C@@H](CCc1cc(F)c(C(F)(F)F)c(F)c1)C(=O)O; NPrPhe(4-CF3) = CCCN[C@@H](Cc1ccc(C(F)(F)F)cc1)C(=O)O; X1 = CN([C@@H](CCCC=[*:3])C(=O)[*:2])[*:1]; X2 = C[C@@](CC=[*:3])(N[*:1])C(=O)[*:2]; NMeGly(cPent) = CN[C@H](C(=O)O)C1CCCC1; Hyp = O=C(O)[C@@H]1C[C@@H](O)CN1; NMeD = CN[C@@H](CC(=O)O)C(=O)O; Morpholide = C1CN(*)CCO1; Sar = CNCC(=O)O

How the values were obtained:
[1] = biological target: GDP-bound KRAS wild-type protein (Homo sapiens, UniProt P01116); experiment: Binding to KRAS by surface plasmon resonance (SPR), Single Cycle Kinetics
[2] = biological target: GDP-bound NRAS wild-type protein (Homo sapiens, UniProt P01111); experiment: Binding to NRAS by surface plasmon resonance (SPR), Single Cycle Kinetics; conditions: SPR; for NRAS/KRAS (ratio of KD value with respect to NRAS to KD value with respect to KRAS): GDP-bound NRAS wild-type vs GDP-bound KRAS wild-type; for NRAS/KRAS (ratio of KD value for GDP-bound NRAS wild-type protein to KD value for KRAS): KD ratio class
GDP-bound NRAS wild-type protein, sequence (P01111 whole entry): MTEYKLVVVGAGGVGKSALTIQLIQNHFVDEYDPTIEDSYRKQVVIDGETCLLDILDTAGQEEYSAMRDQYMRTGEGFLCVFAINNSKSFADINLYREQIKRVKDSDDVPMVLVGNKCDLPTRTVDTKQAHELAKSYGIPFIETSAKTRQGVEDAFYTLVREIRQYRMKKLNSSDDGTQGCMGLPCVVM

[3] = biological target: GDP-bound HRAS wild-type protein (Homo sapiens, UniProt P01112); experiment: Binding to HRAS by surface plasmon resonance (SPR), Single Cycle Kinetics; conditions: SPR; for HRAS/KRAS (ratio of KD value with respect to HRAS to KD value with respect to KRAS): GDP-bound HRAS wild-type vs GDP-bound KRAS wild-type; for HRAS/KRAS (ratio of KD value for GDP-bound HRAS wild-type protein to KD value for KRAS): KD ratio class
GDP-bound HRAS wild-type protein, sequence (P01112 whole entry): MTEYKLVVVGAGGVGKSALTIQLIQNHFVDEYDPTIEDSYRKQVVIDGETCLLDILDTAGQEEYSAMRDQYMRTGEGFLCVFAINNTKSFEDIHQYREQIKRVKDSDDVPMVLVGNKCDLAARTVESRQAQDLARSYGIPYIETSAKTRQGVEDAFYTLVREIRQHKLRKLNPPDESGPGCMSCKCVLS

[4] = tested on: human lung cancer strain NCI-H441
[5] = SPR, Single Cycle Kinetics, GDP-bound KRAS wild-type protein
[6] = read-out: NCI-H441 IC50, NCI-H441 cells, 4 days, CellTiter-Glo

Row | SMILES | pKd [1, 5] | pIC50 [4, 6] | NRAS/KRAS (ratio of KD value for GDP-bound NRAS wild-type protein to KD value for KRAS) [2] | HRAS/KRAS (ratio of KD value for GDP-bound HRAS wild-type protein to KD value for KRAS) [3] | further results
1 | CCCN1C(=O)CN(C)C(=O)CN(C)C(=O)[C@H]([C@@H](C)CC)NC(=O)[C@@H]2CCC/C=C\C[C@](C)(NC(=O)[C@@H]3C[C@@H](OCC)CN3C(=O)[C@H](CCc3cc(F)c(C(F)(F)F)c(F)c3)NC(=O)CN(C)C(=O)[C@@H]1Cc1ccc(C(F)(F)F)cc1)C(=O)N(C)[C@@H](C1CCCC1)C(=O)N(C)[C@H](C(=O)N1CCOCC1)CC(=O)N2C [PP0901] ([X1]I[Sar][Sar][NPrPhe(4-CF3)][Sar][hPhe(3,5-F2-4-CF3)][Hyp](Et)[X2][NMeGly(cPent)][NMeD]-Morpholide; staple (Z) 1-9; lactam N-11) | 8.52 |  |  |  | NRAS/KRAS (ratio of KD value with respect to NRAS to KD value with respect to KRAS) [2]: B (a compound having 3 or more and less than 10 is denoted as B); HRAS/KRAS (ratio of KD value with respect to HRAS to KD value with respect to KRAS) [3]: B (a compound having 3 or more and less than 10 is denoted as B); pIC50 [4]: 6.48
2 | CC[C@H](C)[C@@H]1NC(=O)[C@H](CC(C)C)N(C)C(=O)C[C@@H](C(=O)N(C)C)N(C)C(=O)[C@H](C2CCCC2)N(C)C(=O)C2(CCCC2)NC(=O)[C@@H]2CCCN2C(=O)[C@H](CCc2ccc(C(F)(F)F)c(Cl)c2)NC(=O)CN(C)C(=O)[C@H](Cc2ccc(C(F)(F)F)cc2)N2CC=C(C)C[C@@H](C2=O)N(C)C(=O)CN(C)C1=O [PP0621] |  |  |  |  | pKd ([1]; GDP-bound KRAS wild-type protein, SPR Single Cycle Kinetics, 1:1 binding model): 8.62; NRAS/KRAS (ratio of KD value with respect to GDP-bound NRAS wild-type protein to KD value with respect to KRAS) [2]: C (A compound having a KD ratio of 0.1 or more and less than 3 is denoted as C); HRAS/KRAS (ratio of KD value with respect to GDP-bound HRAS wild-type protein to KD value with respect to KRAS) [3]: C (A compound having a KD ratio of 0.1 or more and less than 3 is denoted as C); pIC50 [4]: 7.08
3 | CCO[C@@H]1C[C@H]2C(=O)NC3(CCC3)C(=O)N(C)[C@@H](C(CC)CC)C(=O)N(C)C(C(C)C)CC(=O)N(C)[C@@H](CC)C(=O)N[C@@H]([C@@H](C)CC)C(=O)N(C)CC(=O)N(C)[C@H]3C/C=C\CCN(C3=O)[C@@H](Cc3ccc(C(F)(F)F)cc3)C(=O)N(C)CC(=O)N[C@@H](CCc3cc(F)c(C(F)(F)F)c(F)c3)C(=O)N2C1 (some centres unmarked) [PP1589] | 8.74 | 7.06 | A (a compound having 10 or more and less than 20 is denoted as A) | A (a compound having 10 or more and less than 20 is denoted as A) | 
4 | CC[C@H](C)[C@@H]1NC(=O)[C@@H](CC(C)C)N(C)C(=O)CSC[C@H](C(=O)N(C)C)N(C)C(=O)[C@@H](C2CCCC2)N(C)C(=O)C2(CCCC2)NC(=O)[C@@H]2CCCN2C(=O)[C@H](CCc2cc(F)c(C(F)(F)F)c(F)c2)NC(=O)CN(C)C(=O)[C@H](Cc2ccc(C(F)(F)F)cc2)N2CC=CC[C@@H](C2=O)N(C)C(=O)CN(C)C1=O [PP3108] |  |  |  |  | pKd ([1]; SPR Single Cycle Kinetics, GDP-bound KRAS wild-type protein, 1:1 binding model): 6.06; NRAS/KRAS (ratio of KD value with respect to GDP-bound NRAS wild-type protein to KD value with respect to KRAS) ([2]; GDP-bound wild-type proteins): C (A compound having a KD ratio of 0.1 or more and less than 3 is denoted as C); HRAS/KRAS (ratio of KD value with respect to GDP-bound HRAS wild-type protein to KD value with respect to KRAS) ([3]; GDP-bound wild-type proteins): B (a compound having 3 or more and less than 10 is denoted as B); pIC50 [4]: 5.03
5 | CCO[C@@H]1C[C@H]2C(=O)NC3(CCC3)C(=O)N(C)[C@@H](C3CCCC3)C(=O)N(C)[C@H](C(=O)N(C)C)CC(=O)N(C)[C@@H](CC3CCCC3)C(=O)N[C@@H]([C@@H](C)CC)C(=O)N(C)CC(=O)N(C)[C@H]3C/C=C\CCN(C3=O)[C@@H](Cc3ccc(C(F)(F)F)cc3)C(=O)N(C)CC(=O)N[C@@H](CCc3ccc(C(F)(F)F)c(OC)c3)C(=O)N2C1 [PP1248] |  | 8.14 |  |  | pKd [1]: 10.16

The next lines start with results.

Row | pKd [1, 5] | pIC50 [4, 6] | SMILES | NRAS/KRAS (ratio of KD value for GDP-bound NRAS wild-type protein to KD value for KRAS) [2] | HRAS/KRAS (ratio of KD value for GDP-bound HRAS wild-type protein to KD value for KRAS) [3] | further results
6 | 10.66 | 7.97 | CC[C@H](C)[C@@H]1NC(=O)[C@H](CC2CC2)N(C)C(=O)C[C@@H](C(=O)N(C)C)N(C)C(=O)[C@H](C2CCCC2)N(C)C(=O)C2(CCC2)NC(=O)[C@@H]2C[C@@H](F)CN2C(=O)[C@H](CCc2cc(F)c(C(F)(F)F)c(F)c2)NC(=O)CN(C)C(=O)[C@H](Cc2ccc(C(F)(F)F)cc2)N2CC/C=C\C[C@@H](C2=O)N(C)C(=O)CN(C)C1=O [PP1497] | A (a compound having 10 or more and less than 20 is denoted as A) | A (a compound having 10 or more and less than 20 is denoted as A) | 
7 | 9.92 | 7.83 | CCO[C@@H]1C[C@H]2C(=O)NC3(CCC3)C(=O)N(C)[C@@H](C3CCCC3)C(=O)N(C)[C@H](C(=O)N3CCCC3)CC(=O)N(C)[C@@H](CC3CC3)C(=O)N[C@@H]([C@@H](C)CC)C(=O)N(C)CC(=O)N(C)[C@H]3C/C=C\CCN(C3=O)[C@@H](Cc3ccc(C(F)(F)F)cc3)C(=O)N(C)CC(=O)N[C@@H](CCc3cc(F)c(C(F)(F)F)c(F)c3)C(=O)N2C1 [PP1296] | AA (a compound having 20 or more is denoted as AA) | A (a compound having 10 or more and less than 20 is denoted as A) | 
8 | 10.22 | 8.43 | CCO[C@@H]1C[C@H]2C(=O)NC3(CCC3)C(=O)N(C)[C@@H](C3CCCC3)C(=O)N(C)[C@H](C(=O)N(C)C)CC(=O)N(C)[C@@H](CC(C)C)C(=O)N[C@@H]([C@@H](C)CC)C(=O)N(C)CC(=O)N(C)[C@H]3C/C=C\CCN(C3=O)[C@@H](Cc3ccc(C(F)(F)F)cc3)C(=O)N(C)CC(=O)N[C@@H](CCc3ccc(C(F)(F)F)c(OC)c3)C(=O)N2C1 [PP1245] | A (a compound having 10 or more and less than 20 is denoted as A) | B (a compound having 3 or more and less than 10 is denoted as B) | 
9 | 10.13 | 7.73 | CCO[C@@H]1C[C@H]2C(=O)NC3(CCC3)C(=O)N(C)[C@@H](C3CCCC3)C(=O)N(C)[C@H](C(=O)N(C)C)CC(=O)N(C)[C@@H](CC3CC3)C(=O)N[C@@H]([C@@H](C)CC)C(=O)N(C)CC(=O)N(C)[C@H]3C/C=C\CCN(C3=O)[C@@H](Cc3ccc(C)cc3)C(=O)N(C)CC(=O)N[C@@H](CCc3cc(F)c(C(F)(F)F)c(F)c3)C(=O)N2C1 [PP1407] | A (a compound having 10 or more and less than 20 is denoted as A) | A (a compound having 10 or more and less than 20 is denoted as A) | 
10 | 9.12 | 7.07 | CCO[C@@H]1C[C@H]2C(=O)NC3(CC(F)(F)C3)C(=O)N(C)[C@@H](C3CCCC3)C(=O)N(C)C(C3CCCCC3)CC(=O)N(C)[C@@H](COC)C(=O)N[C@@H]([C@@H](C)CC)C(=O)N(C)CC(=O)N(C)[C@H]3C/C=C\CCN(C3=O)[C@@H](Cc3ccc(C(F)(F)F)cc3)C(=O)N(C)CC(=O)N[C@@H](CCc3cc(F)c(C(F)(F)F)c(F)c3)C(=O)N2C1 (some centres unmarked) [PP1586] | A (a compound having 10 or more and less than 20 is denoted as A) | A (a compound having 10 or more and less than 20 is denoted as A) | 
11 | 11.06 |  | CCCN1C(=O)CN(C)C(=O)CN(C)C(=O)[C@H]([C@@H](C)CC)NC(=O)[C@@H]2CCCCOc3ccc(cc3)C[C@H]1C(=O)N(C)CC(=O)N[C@@H](CCc1cc(F)c(C(F)(F)F)c(F)c1)C(=O)N1C[C@H](OCC)C[C@H]1C(=O)NC1(CCCC1)C(=O)N(C)[C@@H](C1CCCC1)C(=O)N(C)[C@H](C(=O)N(C)C)CC(=O)N2C [PP0894] |  |  | NRAS/KRAS (ratio of KD value with respect to NRAS to KD value with respect to KRAS) [2]: C (A compound having a KD ratio of 0.1 or more and less than 3 is denoted as C); HRAS/KRAS (ratio of KD value with respect to HRAS to KD value with respect to KRAS) [3]: C (A compound having a KD ratio of 0.1 or more and less than 3 is denoted as C)
